# From patent US11655216B2 (priority 2016, dated 2023)
# Like-named read-outs stand apart in the source and are kept apart here.
# Legend:
# [1] = biological target: T1, glutathione-S-transferase (GST) tagged LXRalpha LBD (ligand binding domain) (Homo sapiens, UniProt Q13133); assay: biochemical
# T1 construct: purchased Invitrogen pv4655
# T1 sequence (Q13133 209-447 limits assumed): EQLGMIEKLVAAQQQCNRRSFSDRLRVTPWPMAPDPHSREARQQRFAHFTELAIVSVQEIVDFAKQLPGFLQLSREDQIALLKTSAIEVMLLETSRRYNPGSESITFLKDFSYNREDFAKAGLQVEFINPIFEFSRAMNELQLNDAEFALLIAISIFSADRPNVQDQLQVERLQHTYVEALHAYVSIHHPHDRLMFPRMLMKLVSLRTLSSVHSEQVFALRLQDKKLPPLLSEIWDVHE
# Procedure, shortened: (§1)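 Test ligands were combined with the receptor LBD, after which terbium-labelled anti-GST antibody and a fluorescein-tagged coactivator peptide were introduced together. Plates sat at room temperature, then time-resolved FRET was measured.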
# [2] = biological target: T2, glutathione-S-transferase (GST) tagged LXRbeta LBD (ligand binding domain) (Homo sapiens, UniProt P55055); assay: LanthaScreen TR-FRET Liver X Receptor Coactivator Assay, LXR beta; assay type: biochemical; conditions: for EC50: LXR beta IP, potency (Inflection Point), compound-induced co-activator recruitment, TR-FRET; for Emax: read-out: LXR beta actiivty at max dose, efficacy (% Emax) in relation to reference dual agonist T0901317
# T2 construct: purchased Invitrogen pv4658
# T2 sequence (P55055 222-460 limits assumed): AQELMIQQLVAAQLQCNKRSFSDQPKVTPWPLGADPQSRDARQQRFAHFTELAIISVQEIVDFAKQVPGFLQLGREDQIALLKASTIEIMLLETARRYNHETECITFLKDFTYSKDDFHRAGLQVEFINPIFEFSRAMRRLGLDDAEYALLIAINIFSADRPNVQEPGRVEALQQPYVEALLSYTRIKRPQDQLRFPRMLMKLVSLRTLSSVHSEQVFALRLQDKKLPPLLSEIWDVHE
# Procedure, shortened: as §1
# [3] = LXR alpha IP, potency (Inflection Point), compound-induced co-activator recruitment, TR-FRET
# [4] = read-out: LXR alpha actiivty at max dose, efficacy (% Emax) in relation to reference dual agonist T0901317
# [5] = potency (Inflection Point), compound-induced co-activator recruitment, TR-FRET, read-out: LXR alpha IP
# [6] = efficacy (% Emax) in relation to reference dual agonist T0901317, read-out: LXR alpha actiivty at max dose
# [7] = potency (Inflection Point), compound-induced co-activator recruitment, TR-FRET
Compound,"EC50 [1, 3] [nM]","Emax [1, 4] [%]",EC50 [2] [nM],Emax [2] [%],EC50 ([1]; LXR alpha IP) [nM],Emax ([1]; read-out: LXR alpha actiivty at max dose) [%],"EC50 [1, 5] [nM]","Emax [1, 6] [%]","LXR alpha IP [1, 7]"
"COc1ccccc1[C@@](O)(C(=O)N1CCC2(CC1)C[C@@H]2CCCOc1ccc(C(=O)N(C)C)c(Cl)c1)C(F)(F)F (single isomer, unassigned) [Example 14-5, 2-chloro-N,N-dimethyl-4-(3-((S or R)-6-((R or S)-3,3,3-trifluoro-2-hydroxy-2-(2-methoxyphenyl)propanoyl)-6-azaspiro[2.5]octan-1-yl)propoxy)benzamide]",231,50,10,118,,,,,
"COc1cccc([C@@](O)(C(=O)N2CCC3(CC2)C[C@@H]3CCCOc2ccc(C(=O)N(C)C)c(Cl)c2)C(F)(F)F)c1 (single isomer, unassigned) [Example 14-6, 2-chloro-N,N-dimethyl-4-(3-((S or R)-6-((R or S)-3,3,3-trifluoro-2-hydroxy-2-(3-methoxyphenyl)propanoyl)-6-azaspiro[2.5]octan-1-yl)propoxy)benzamide]",162,23,6,116,,,,,
"COc1cccc([C@](O)(C(=O)N2CCC3(CC2)C[C@@H]3CCCOc2ccc(C(=O)N(C)C)c(Cl)c2)C(F)(F)F)c1 (single isomer, unassigned) [Example 14-7, 2-chloro-N,N-dimethyl-4-(3-((S or R)-6-((S or R)-3,3,3-trifluoro-2-hydroxy-2-(3-methoxyphenyl)propanoyl)-6-azaspiro[2.5]octan-1-yl)propoxyl)benzamide]",186,46,9,100,,,,,
"CN(C)C(=O)c1ccc(OCCC[C@H]2CC23CCN(C(=O)[C@](O)(c2ccccc2)C(F)(F)F)CC3)nc1Cl (single isomer, unassigned) [Example 15-1, 2-chloro-N,N-dimethyl-6-(3-((S or R)-6-((R or S)-3,3,3-trifluoro-2-hydroxy-2-phenylpropanoyl)-6-azaspiro[2.5]octan-1-yl)propoxy)nicotinamide]",,,19,88,506,28,,,
"CN(C)C(=O)c1ccc(OCCC[C@@H]2CC23CCN(C(=O)[C@@](O)(c2ccccc2)C(F)(F)F)CC3)nc1Cl (single isomer, unassigned) [Example 15-2, 2-chloro-N,N-dimethyl-6-(3-((R or S)-6-((S or R)-3,3,3-trifluoro-2-hydroxy-2-phenylpropanoyl)-6-azaspiro[2.5]octan-1-yl)propoxy)nicotinamide]",,32,65,115,,,654,,
"COc1cccc(C(O)(C(=O)N2CCC(C3CC3(C)COc3ccc(C(=O)N(C)C)c(Cl)c3)CC2)C(F)(F)F)c1 (single isomer, unassigned) [Example 16-1, 2-chloro-N,N-dimethyl-4-((1-methyl-2-(1-((R or S)-3,3,3-trifluoro-2-hydroxy-2-(3-methoxyphenyl)propanoyl)piperidin-4-yl)cyclopropyl)methoxy)benzamide]",955,18,66,84,,,,,
"CN(C)C(=O)c1ccc(OCC2(CC3CCN(C(=O)C(O)(c4ccccc4)C(F)(F)F)CC3)CC2)cc1Cl (single isomer, unassigned) [Example 17-1, (R or S)-2-chloro-N,N-dimethyl-4-((1-((1-(3,3,3-trifluoro-2-hydroxy-2-phenylpropanoyl)piperidin-4-yl)methyl)cyclopropyl)methoxy)benzamide]",1630,19,188,77,,,,,
"CN(C)C(=O)c1ccc(OC(F)(F)CCCC2CCN(C(=O)C(O)(c3ccccc3)C(F)(F)F)CC2)cc1Cl (single isomer, unassigned) [Example 19-1, (R or S)-2-chloro-4-(1,1-difluoro-4-(1-(3,3,3-trifluoro-2-hydroxy-2-phenylpropanoyl)piperidin-4-yl)butoxy)-N,N-dimethylbenzamide]",,,86,75,,,1170,23,
"CN(C)C(=O)c1ccc(OCC(F)CCC2CCN(C(=O)C(O)(c3ccccc3)C(F)(F)F)CC2)cc1Cl (single isomer, unassigned) [Example 20-1, 2-chloro-4-(2-fluoro-4-(1-((R or S)-3,3,3-trifluoro-2-hydroxy-2-phenylpropanoyl)piperidin-4-yl)butoxy)-N,N-dimethylbenzamide]",,,80,72,,,1430,26,
"CN(C)C(=O)c1ccc(OC[C@@H](F)CCC2CCN(C(=O)[C@](O)(c3ccccc3)C(F)(F)F)CC2)cc1Cl (single isomer, unassigned) [Example 20-2, 2-chloro-4-((S or R)-2-fluoro-4-(1-((R or S)-3,3,3-trifluoro-2-hydroxy-2-phenylpropanoyl)piperidin-4-yl)butoxy)-N,N-dimethylbenzamide]",,25,71,73,,,1490,,
"COc1cccc(C(O)(C(=O)N2CCC(C(F)CCCOc3ccc(C(=O)N(C)C)c(Cl)c3)CC2)C(F)(F)F)c1 (single isomer, unassigned) [Example 21-1, 2-chloro-4-(4-fluoro-4-(1-((R or S)-3,3,3-trifluoro-2-hydroxy-2-(3-methoxyphenyl)propanoyl)piperidin-4-yl)butoxy)-N,N-dimethylbenzamide]",,,9,75,,,422,27,
"COc1cccc(C(O)(C(=O)N2CCC(C(F)(F)CCCOc3ccc(C(=O)N(C)C)c(Cl)c3)CC2)C(F)(F)F)c1 (single isomer, unassigned) [Example 22-1, (R or S)-2-chloro-4-(4,4-difluoro-4-(1-(3,3,3-trifluoro-2-hydroxy-2-(3-methoxyphenyl)propanoyl)piperidin-4-yl)butoxy)-N,N-dimethylbenzamide]",,,7,67,,,212,32,
"CC(CCC1CCN(C(=O)[C@](O)(c2ccccc2)C(F)(F)F)CC1)COc1ccc(C(=O)N(C)C)c(Cl)c1 (single isomer, unassigned) [Example 23-1, 2-chloro-N,N-dimethyl-4-((R or S)-2-methyl-4-(1-((R or S)-3,3,3-trifluoro-2-hydroxy-2-phenylpropanoyl)piperidin-4-yl)butoxy)benzamide]",,,24,74,,,436,23,
"COc1cccc([C@](O)(C(=O)N2CCC(CC[C@H](C)COc3ccc(C(=O)N(C)C)c(Cl)c3)CC2)C(F)(F)F)c1 (single isomer, unassigned) [Example 23-2, 2-chloro-N,N-dimethyl-4-((S or R)-2-methyl-4-(1-((S or R)-3,3,3-trifluoro-2-hydroxy-2-(3-methoxyphenyl)propanoyl)piperidin-4-yl)butoxy)benzamide]",,0,19,53,,,,,No IP
"C[C@@H](CCC1CCN(C(=O)[C@](O)(c2cc(F)cc(F)c2)C(F)(F)F)CC1)COc1ccc(C(=O)N(C)C)c(Cl)c1 (single isomer, unassigned) [Example 23-3, 2-chloro-4-((S or R)-4-(1-((R or S)-2-(3,5-difluorophenyl)-3,3,3-trifluoro-2-hydroxypropanoyl)piperidin-4-yl)-2-methylbutoxy)-N,N-dimethylbenzamide]",150,42,12,89,,,,,
"CNC(=O)c1ccc(OC[C@@H](C)CCC2CCN(C(=O)[C@@](O)(c3cccc(OC)c3)C(F)(F)F)CC2)cc1Cl (single isomer, unassigned) [Example 23-4, 2-chloro-N-methyl-4-((S or R)-2-methyl-4-(1-((S or trifluoro-2-hydroxy-2-(3-methoxyphenyl)propanoyl)piperidin-4-yl)butoxy)benzamide]",717,9,60,53,,,,,
"COc1cccc([C@@](O)(C(=O)N2CCC(CC[C@H](C)COc3ccc(C(N)=O)c(Cl)c3)CC2)C(F)(F)F)c1 (single isomer, unassigned) [Example 24-1, 2-chloro-4-((R or S)-2-methyl-4-(1-((S or R)-3,3,3-trifluoro-2-hydroxy-2-(3-methoxyphenyl)propanoyl)piperidin-4-yl)butoxy)benzamide]",,,33,54,,,,14,No IP
